Source: the NIST ThermoML archive (doi:10.1016/j.jct.2005.06.015)

Tests used:
[1] = 101 kPa, Liquid
[2] = refractive index (Na D-line) (dimensionless); conditions: 101.33 kPa, Liquid, Standard Abbe refractometry
[3] = xn = mol fraction of the nth substance listed; conditions: 101 kPa, Liquid
[4] = refractive index (Na D-line) (dimensionless); xn = mol fraction of the nth substance listed; conditions: 101 kPa, Liquid, Standard Abbe refractometry

ClC(Cl)C(Cl)Cl [1,1,2,2-tetrachloroethane]
Conditions | mass density, [1] [kg/m3] | refractive index, [2]
293.15 K | 1594.27 | 1.49387
303.15 K | 1574.85 | 1.48887

ClC(Cl)C(Cl)Cl [1,1,2,2-tetrachloroethane] + CCCCCCCCCCO
Conditions | mass density, [3] [kg/m3] | refractive index, [4]
293.15 K, x1 = 0.1023 | 874.88 | 1.44019
293.15 K, x1 = 0.2004 | 922 | 1.44342
293.15 K, x1 = 0.3006 | 974.95 | 1.44704
293.15 K, x1 = 0.4005 | 1033.5 | 1.45108
293.15 K, x1 = 0.5009 | 1099.29 | 1.45575
293.15 K, x1 = 0.6001 | 1172.37 | 1.46097
293.15 K, x1 = 0.6999 | 1255.81 | 1.46711
293.15 K, x1 = 0.8 | 1351.62 | 1.47434
293.15 K, x1 = 0.901 | 1464.04 | 1.48303
293.15 K, x1 = 1 | 1594.27 | 1.49387
303.15 K, x1 = 0.1023 | 867.03 | 1.43656
303.15 K, x1 = 0.2004 | 913.42 | 1.43969
303.15 K, x1 = 0.3006 | 965.57 | 1.44313
303.15 K, x1 = 0.4005 | 1023.2 | 1.44706
303.15 K, x1 = 0.5009 | 1087.89 | 1.45152
303.15 K, x1 = 0.6001 | 1159.72 | 1.45665
303.15 K, x1 = 0.6999 | 1241.75 | 1.46263
303.15 K, x1 = 0.8 | 1336.02 | 1.46974
303.15 K, x1 = 0.901 | 1446.7 | 1.47826
303.15 K, x1 = 1 | 1574.85 | 1.48887

ClC(Cl)C(Cl)Cl [1,1,2,2-tetrachloroethane] + CCCCCCCCO
Conditions | mass density, [3] [kg/m3] | refractive index, [4]
293.15 K, x1 = 0.1028 | 879.91 | 1.43403
293.15 K, x1 = 0.1967 | 933.27 | 1.43826
293.15 K, x1 = 0.2997 | 995.8 | 1.44321
293.15 K, x1 = 0.4005 | 1061.47 | 1.44845
293.15 K, x1 = 0.501 | 1132.1 | 1.45416
293.15 K, x1 = 0.6 | 1207.5 | 1.46034
293.15 K, x1 = 0.6999 | 1290.57 | 1.46723
293.15 K, x1 = 0.7998 | 1381.66 | 1.47492
293.15 K, x1 = 0.9007 | 1483.42 | 1.48379
293.15 K, x1 = 1 | 1594.27 | 1.49387
303.15 K, x1 = 0.1028 | 872.01 | 1.43011
303.15 K, x1 = 0.1967 | 924.42 | 1.43419
303.15 K, x1 = 0.2997 | 985.92 | 1.43892
303.15 K, x1 = 0.4005 | 1050.64 | 1.44404
303.15 K, x1 = 0.501 | 1120.29 | 1.44968
303.15 K, x1 = 0.6 | 1194.6 | 1.45579
303.15 K, x1 = 0.6999 | 1276.31 | 1.46262
303.15 K, x1 = 0.7998 | 1365.71 | 1.47026
303.15 K, x1 = 0.9007 | 1465.56 | 1.47898
303.15 K, x1 = 1 | 1574.85 | 1.48887

ClC(Cl)C(Cl)Cl [1,1,2,2-tetrachloroethane] + CCCCCCCO
Conditions | mass density, [3] [kg/m3] | refractive index, [4]
293.15 K, x1 = 0.1022 | 883.03 | 1.42952
293.15 K, x1 = 0.1995 | 943.76 | 1.43494
293.15 K, x1 = 0.3002 | 1009.72 | 1.4406
293.15 K, x1 = 0.4008 | 1079.02 | 1.44661
293.15 K, x1 = 0.5001 | 1151.23 | 1.45297
293.15 K, x1 = 0.599 | 1227.43 | 1.45976
293.15 K, x1 = 0.6996 | 1310.04 | 1.46717
293.15 K, x1 = 0.7999 | 1398.24 | 1.47525
293.15 K, x1 = 0.9015 | 1494.17 | 1.48421
293.15 K, x1 = 1 | 1594.27 | 1.49387
303.15 K, x1 = 0.1022 | 875.27 | 1.42581
303.15 K, x1 = 0.1995 | 934.97 | 1.43106
303.15 K, x1 = 0.3002 | 999.87 | 1.43653
303.15 K, x1 = 0.4008 | 1068.12 | 1.44244
303.15 K, x1 = 0.5001 | 1139.25 | 1.44861
303.15 K, x1 = 0.599 | 1214.28 | 1.45521
303.15 K, x1 = 0.6996 | 1295.52 | 1.46254
303.15 K, x1 = 0.7999 | 1382.11 | 1.4705
303.15 K, x1 = 0.9015 | 1476.3 | 1.47937
303.15 K, x1 = 1 | 1574.85 | 1.48887
